The values below come from the NIST ThermoML archive (doi:10.1016/j.fluid.2011.10.009).

For this data set the following is noted: Liquid.

Numbers after ± are expanded uncertainties.

One may read the vapor or sublimation pressure as the equilibrium pressure above the liquid or solid. `Cc1cccc(C)c1` [1,3-dimethylbenzene]: where the note is “412 K, Ebulliometric method (Recirculating still)”, the “vapor or sublimation pressure” value was found to be 101.3 ± 1 kPa.

In the case of `Cc1ccc(C)cc1` [1,4-dimethylbenzene], the “vapor or sublimation pressure” value (411.4 K, Ebulliometric method (Recirculating still)) turned out to be 101.3 ± 1 kPa. Take `c1ccccc1` [benzene]: the “vapor or sublimation pressure” value (353.3 K, Closed cell (Static) method) worked out at 101.3 ± 1 kPa.

Regarding `C1CCCCC1` [cyclohexane], for the setting “353.7 K, Ebulliometric method (Recirculating still)”, the “vapor or sublimation pressure” value was found to be 101.3 ± 1 kPa. On to `CCCCCCCCC` [nonane], for which the “vapor or sublimation pressure” value (423.8 K, Ebulliometric method (Recirculating still)) amounted to 101.3 ± 1 kPa. With `Cc1ccccc1` [toluene], the “vapor or sublimation pressure” value was found to be 101.3 ± 1 kPa (383.4 K, Closed cell (Static) method) and 101.3 ± 1 kPa (383.8 K, Closed cell (Static) method).
